Entries after “also recorded” stand apart in the source; their conditions may differ. Where two headings read alike, the source gives them in different places.
Legend:
[1] = in vivo; cited from earlier work
aromatase [2] = target: T1, aromatase (Homo sapiens, UniProt P11511); assay: Concentration-Dependent Inactivation (rate constant of inactivation); assay type: biochemical; settings: relative to 19-mercaptoandrost-4-en-3,17-dione
T1 construct: Placental microsomes were prepared as previously described; from tissue; host or cells: human placenta, microsomes
T1 sequence (P11511 1-503): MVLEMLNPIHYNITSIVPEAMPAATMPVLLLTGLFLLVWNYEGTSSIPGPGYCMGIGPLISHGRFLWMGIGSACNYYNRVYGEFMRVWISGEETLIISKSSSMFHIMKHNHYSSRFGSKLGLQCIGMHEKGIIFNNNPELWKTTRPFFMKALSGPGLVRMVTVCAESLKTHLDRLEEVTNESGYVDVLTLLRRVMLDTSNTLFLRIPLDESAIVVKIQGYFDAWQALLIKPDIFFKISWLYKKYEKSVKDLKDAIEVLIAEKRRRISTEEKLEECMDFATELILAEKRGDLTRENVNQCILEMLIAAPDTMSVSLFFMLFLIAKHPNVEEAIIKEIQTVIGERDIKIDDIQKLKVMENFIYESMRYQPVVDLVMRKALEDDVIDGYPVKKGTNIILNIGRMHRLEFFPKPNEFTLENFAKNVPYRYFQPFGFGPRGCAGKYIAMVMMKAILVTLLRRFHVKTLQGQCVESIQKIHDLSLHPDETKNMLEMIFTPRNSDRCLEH
Procedure: (§1) The activity of 17β-hydroxy-10β-mercaptoestr-4-en-3-one and 19-mercaptoandrost-4-en-3,17-dione were tested as suicide inhibitors of aromatase according to the method of Coury et al. (J. Biol. Chem., 256, 1076 (1981)) in human placental microsomes. The activity was measured by the well-established tritium release assay according to Thompson et al. (J. Biol. Chem., 249, 5364 (1974)) using 1β,2β-[^3 H]androstenedione (40-60 Ci/mole) obtained from New England Nuclear in Boston, MA.
(§2) Human placenta were obtained from the University Hospital, University of Washington, Seattle, WA, and were used within a few hours of delivery. Placental microsomes were prepared as previously described. (Coury et al). Protein concentration was determined by the method of Lowry (J. Biol. Chem., 193, 265 (1951)).
Incubations containing 1.0 mg/ml microsomal protein, 32 mg/ml propylene glycol, and 0.36 mM NADPH were warmed to 30° C. for 5 minutes. Various concentrations of inhibitor were added to the incubations in ethanol (10 μl/ml of incubate). Ethanol (10 μl/ml was) added as a control. After incubating 0, 1, 2, and 3 minutes at 30° C., 400 μl aliquots, in duplicate, were removed and were added to the tritium release assay described above.

aromatase [3] = target: T1, aromatase; assay: Androstenedione and Cysteine Protection Experiments (t1/2 of aromatase inactivation), tritium release assay; assay type: biochemical; settings: 1 at 500 nM, 2 at 167 nM, 30° C., NADPH, not corrected for background loss; for t1/2 (mean ± SD), time to bring about a 50% inhibition of aromatase: inhibitor alone; for t1/2 (mean ± SD), inhibitor and androstenedione: with androstenedione 5.0 μM; for t1/2 (mean ± SD), inhibitor and cysteine: with cysteine 1.0 mM
Procedure: as §1, §2
(§3) All incubations were carried out in 10 mM phosphate buffer, pH 7.5, 100 mM KCl, 1/mM EDTA. Incubations contained 1.0 mg/ml microsomal protein, 32 mg/ml propylene glycol, 0.36 mM NADPH, 11.5 mM glucose-6-phosphate dehydrogenase and 10 mM MgCl2 and were allowed to warm to 30° C. for 5 minutes. Inhibitors were added as 10 μl/ml from 10 μM stock solutions in ethanol to give final inhibitor concentrations of 100 nM. At various times, from 0 to 70 minutes, 400 μl aliquots in duplicate were removed and were added to […] of a 10 mM phosphate buffer, pH 7.5, 100 mM KCl, 1 mM EDTA containing 40 μM 1β,2β,[^3 H]androstenedione (20 Ci/mol). Tritium release incubations were conducted at 37° C. for 10 minutes and stopped by addition of 5 ml 20% acetone/chloroform. Following vortexing at high speeds for 30 seconds and centrifugation, 100 μl of the water layer was removed and mixed with 5 ml LSC cocktail and counted. Percent activity remaining is the number of DPMs after a time period divided by the number of DPMs at time zero multiplied by 100.
Incubations containing 1.0 mg/ml microsomal protein, 32 mg/ml propylene glycol, and 0.36 mM NADPH were warmed to 30° C. for 5 minutes. Addition of ethanol solutions (10 μl/ml) of inhibitors with and without androstenedione gave final concentrations of 500 nM 17β-hydroxy-10β-mercaptoestr-4-en-3-one, 167 nM 19-mercaptoandrost-4-en-3,17-dione, with and without 5.0 μM androstenedione. After 0, 1, 2, and 3 minutes at 30° C., 400 μl aliquots, in duplicate, were removed and added to the tritium release assay.
Incubations containing 1.0 mg/ml microsomal protein, 32 mg/ml propylene glycol, and 0.36 mM NADPH, with or without 1.0 mM cysteine, were warmed to 30° C. for 5 minutes. Addition of inhibitor solution (10 μl/ml) gave final concentrations of 500 nM 17β-hydroxy-10β-mercapto-4-en-3-one and 167 nM 19-mercaptoandrost-4-en-3,17-dione. After incubating 0, 1, 2, and 3 minutes, 400 μl aliquots, in duplicate, were removed and added to tritium release assays.

aromatase [4] = target: T1, aromatase; assay: NADPH and Oxygen Dependency Experiments: aromatase inactivation in placental microsomes, tritium release assay; assay type: biochemical; settings: 500 nM inhibitor, preincubation 3 minutes at 30° C., not corrected for background loss (approximately 5%)
Procedure: as §1, §2, §3
Incubations containing 1.0 mg/ml microsomal protein, 32 mg/ml propylene glycol, with or without 0.36 mM NADPH, were warmed to 30° C. for 5 minutes. Inhibitors were added in ethanol (10 μl/ml of incubate) to give inhibitor concentrations of 500 nM. Controls contained only ethanol and NADPH. After incubating 0 and 3 minutes at 30° C., 400 μl aliquots, in duplicate, from the NADPH containing incubations were added to the tritium release assay. For incubations lacking NADPH, 400 μl aliquots were removed and added to 100 μl phosphate buffer containing 1.4 mM NADPH and […] 1β,2β[^3 H]androstenedione (20 Ci/mol). Tritium release assays were conducted as described above.
Incubations containing 1.0 mg/ml microsomal protein, 32 mg/ml propylene glycol, and 500 nM inhibitor or ethanol (10 μl/ml) were prepared. Incubations run under anaerobic conditions were alternately evacuated and purged with deoxygenated nitrogen ten times at 0° C. Both anaerobic and aerobic incubations were allowed to warm to 30° C. for 5 minutes, and 10 μl/ml of a 1.4 mM NADPH solution was added via a syringe. After incubating 0 and 3 minutes at 30° C., triplicate aliquots of 400 μl were removed and added to tritium release assays.

aromatase [5] = target: T1, aromatase; assay: Irreversibility Experiments (diffusion dialysis), tritium release assay; assay type: biochemical; settings: 250 nM inhibitor, preincubation 5 minutes at 30° C.
Procedure: as §1, §2
Incubations containing 1.8 mg/ml microsomal protein, 32 mg/ml propylene glycol, 0.7 mM NADPH, and 250 nM of inhibitor were kept at 4° C. For zero time points, 400 μl aliquots, in triplicate, were removed and added to tritium release assays. Remaining microsomes were incubated at 30° C. for 5 minutes, cooled in ice to 4° C.; and 400 μl aliquots, in triplicate, were added to tritium release assays to determine remaining activity. Remaining microsomes were added to dialysis tubing (Spectrapore® membrane tubing, 3500 dalton cut off) and dialyzed against a 10 mM phosphate buffer, pH 7.5, 100 mM KCl, 1 mM EDTA, and 5% propylene glycol at 0° C. for 20 hours. To serve as controls, incubations containing the same concentrations of inhibitor, but no cofactors, were carried through the same procedures.
After dialysis, 400 μl aliquots, in duplicate, were added to 100 μl phosphate buffer containing 2.9 mM NADPH and 40 μM 1β,2β[^3 H]androstenedione (20 Ci/mol) and incubated at 37° C. for 10 minutes. The usual workup for the tritium release assay was followed. Protein content for all incubations fell approximately 25% after dialysis. Enzyme activity fell approximately 60% after dialysis.

[6] = N2 atmosphere (anaerobic), read-out: % Activity Remaining (mean ± SD), + N2 atmosphere
[7] = with NADPH, aerobic, read-out: % Activity Remaining (mean ± SD)
[8] = without NADPH, read-out: % Activity Remaining (mean ± SD), - NADPH
[9] = after dialysis 20 hours at 0° C., read-out: Activity Remaining (mean ± SD), After Dialysis
[10] = 5 min, before dialysis, read-out: Activity Remaining (mean ± SD), Before Dialysis

SMILES	side effects [1]	rate constant ratio, 17β-hydroxy-10β-mercaptoestr-4-en-3-one vs 19-mercaptoandrost-4-en-3,17-dione (aromatase [2])	t1/2 (mean ± SD), time to bring about a 50% inhibition of aromatase (aromatase [3])	t1/2 (mean ± SD), inhibitor and androstenedione (aromatase [3])	t1/2 (mean ± SD), inhibitor and cysteine (aromatase [3])	remaining activity at 0.5 µM (aromatase [4]; [6])	remaining activity at 0.5 µM (aromatase [4]; [7])	remaining activity at 0.5 µM (aromatase [4]; [8])	remaining activity at 0.25 µM (aromatase [5]; [9])	remaining activity at 0.25 µM (aromatase [5]; [10])
CCC1(c2ccc(N)cc2)CCC(=O)NC1=O (stereo not drawn) [aminoglutethimide]	lethargy or tumor lysis syndrome; also recorded: sedative which has the side effect of lethargy	–	–	–	–	–	–	–	–	–
C[C@]12CC[C@H]3[C@@H](CCC4=CC(=O)CC[C@@]43S)[C@@H]1CC[C@@H]2O [compound 1, 17β-hydroxy-10β-mercaptoestr-4-en-3-one]	–	about three	281 ± 50 s	756 ± 50 s	310 ± 58 s	95 ± 2%	67 ± 2%	96 ± 3%	52 ± 3%	49 ± 6%
C[C@]12CC[C@H]3[C@@H](CCC4=CC(=O)CC[C@@]43CS)[C@@H]1CCC2=O [compound 2, 19-mercaptoandrost-4-en-3,17-dione]	–	–	462 ± 75 s	729 ± 21 s	412 ± 20 s	95 ± 5%	77 ± 4%	95 ± 5%	58 ± 2%	50 ± 5%

From patent US4745109A, “Suicide inhibitors of aromatase” (Washington Research Foundation, priority 1984, dated 1988)
